Measurements reported in patent US8927547B2, “Pyrimidine derivatives” (Noviga Research AB, priority 2010, dated 2015).

Experiments:
Type in all cases: cell-based
RPMI 8226 = assay: FMCA, RPMI 8226 myeloma; conditions: Homo sapiens, read-out: EC50 (μM) in various cancer cell lines: RPMI 8226
Source text: (§1) The Fluorometric Microculture Cytotoxicity Assay, FMCA, is a three day non-clonogenic microplate-based cell viability assay used for measurement of the cytotoxic and/or cytostatic effect of compounds in vitro (Lindhagen, E., et al. Nat Protoc, 2008. 3(8): p. 1364-9). FMCA (Larsson, R. and P. Nygren, Anticancer Res, 1989. 9(4): p. 1111-9) represents a valuable method to measure cytotoxicity in a number of cell types, both cell lines and primary cells from patients (Larsson, R., et al., Int J Cancer, 1992. 50(2): p. 177-85; Fridborg, H., et al., Eur J Cancer, 1999. 35(3): p. 424-32; Dhar, S., et al., Br J Cancer, 1996. 74(6): p. 888-96).
(§2) FMCA is based on the principle that fluorescein diacetate (FDA) is converted to the fluorescent probe fluorescein by esterases in the plasma membranes of living cells. For experiments, 96 or 384-well microplates are prepared with compounds and stored at −70° C. until use. Cells are then seeded into the drug-prepared plates and placed in an incubator for 72 h. On the last day of incubation, the plates are washed and a buffer containing FDA is added and incubated with the cells for 45 minutes. Finally the fluorescence per well is measured in a fluorometer and a Survival Index % (SI) for each compound-treated well is calculated with the equation: Compound-treated cells minus blank divided by control cells minus blank. A high SI-value indicates a large percentage of living cells and vice versa.
(§3) Compounds of the invention as well as kinase inhibitors sorafenib, sunitinib, dasatinib, and pazopanib (reference compounds) were diluted with PBS to a concentration which was ten-times higher than the desired starting concentration. Then, a Biomek 2000 liquid handling system was employed to serially dilute the compounds in a deep-well 384-well plate. From this plate, assay plates containing 5 μl compound per well were prepared with the Biomek 2000. Certain compounds precipitated when diluted with PBS, and these compounds were therefore prepared in a 96-well plate manually as described above using culture medium RPMI 1640 instead of PBS.
(§4) The compounds were also tested at five concentrations, with five times serial dilution on the following cell types: CCRF-CEM, hTERT-RPE1 (normal retinal epithelial cells), hRPTEpiC (normal renal cells) and PBMC (peripheral blood mononuclear cells). Each experiment was performed three times, except for PBMC and hRPTEpiC, which were performed twice. SI-values were calculated, graphs were plotted using GraphPadPrism 5.0 (GraphPad Software Inc. La Jolla, Calif.) and EC50-values for each cell type and compound were determined from the curves.
(§5) The compounds of the invention were also tested on further cancer cell lines related to colon cancer (HCT116; see e.g Brattain M G, et al. Cancer Res. 1981, 41, 1751-1756), breast cancer (MCF7; see e.g. Soule H D, et al. J. Natl. Cancer Inst. 1973, 51, 1409-1416), teniposide-resistant leukaemia (CEM/VM1; see e.g. Danks M K et al. Cancer Res. 1987, 47, 1297-1301), lung cancer (H69; see e.g. Gazdar A F, et al. Cancer Res. 1980, 40, 3502-3507), doxorubicin-resistant lung cancer (H69AR; see e.g. Mirski S E, et al. Cancer Res. 1987, 47, 2594-2598), myeloma (RPMI 8226; see e.g. Matsuoka Y, et al. Proc. Soc. Exp. Biol. Med. 1967, 125, 1246-1250), doxorubicin-resistant myeloma (8226/Dox40; see e.g. Dalton W S et al. Blood 1989, 15,747-752), lymphoma (U-937, see e.g. Sundstrom C, et al. Int. J. Cancer 1976, 17, 565-577), vincristin-resistant lymphoma (U-937-vcr; see e.g. Botling J, et al. Int J Cancer 1994, 15; 58 (2), 269-274), ovarian cancer (A2780; see e.g. Hamilton T C, et al. Semin Oncol. 1984, 11, 285-298), doxorubicin-resistant ovarian cancer (A2780/Adr), cisplatin-resistant ovarian cancer (A2780/Cis; see e.g. Behrens B C, et al. Cancer Res. 1987, 47, 414-418), renal cancer (ACHN; see e.g. Borden E C, et al. Cancer Res. 1982, 42(12), 4948-4953), pancreatic cancer (PANC-1, BxPC-3, and MIA PaCa-2; see e.g. Lieber M, et al. Int. […]

[1] = system: CCRF-CEM cancer cells - leukaemia; assay: Fluorometric Microculture Cytotoxicity Assay (FMCA), CCRF-CEM; conditions: Homo sapiens, 72 h incubation
Source text: as §1, §2
In subsequent experiments, compounds were tested, along with kinase inhibitors (dasatinib, pazopanib, sorafenib, and sunitinib) as described above. Initially, the acute lymphoblastic leukaemia cell line CCRF-CEM (see e.g. Foley G E, et al. Cancer 1965, 18, 522-529) was used throughout. In the assay plates, medium was added to six empty wells (blank wells) and wells were filled with PBS and cell suspension and served as control wells. SI-values were then calculated for each compound-treated well as described above. All experiments were conducted twice and a new batch of plates was prepared for each experiment.
For dose-response experiments, 384-well plates were prepared as follows:
as §3, §4

MIA PaCa-2 = assay: FMCA, MIA PaCa-2 pancreatic cancer; conditions: Homo sapiens, read-out: EC50 (μM) in various cancer cell lines: MIA PaCa-2
Source text: as §1
as §2, with “versa. […]” for “versa.”
as §4, with “Each experiment was performed three times, except for PBMC and hRPTEpiC, which were performed twice.” left out, “curves. […]” for “curves.”

A2780/Cis = assay: FMCA, A2780/Cis cisplatin-resistant ovarian cancer; conditions: A2780cis, read-out: EC50 (μM) in various cancer cell lines: A2780/Cis
Source text: as §1, §2, §3, §4
(§6) The compounds of the invention were also tested on further cancer cell lines related to colon cancer (HCT116; see e.g Brattain M G, et al. Cancer Res. 1981, 41, 1751-1756), breast cancer (MCF7; see e.g. Soule H D, et al. J. Natl. Cancer Inst. 1973, 51, 1409-1416), teniposide-resistant leukaemia (CEM/VM1; see e.g. Danks M K et al. Cancer Res. 1987, 47, 1297-1301), lung cancer (H69; see e.g. Gazdar A F, et al. Cancer Res. 1980, 40, 3502-3507), doxorubicin-resistant lung cancer (H69AR; see e.g. Mirski S E, et al. Cancer Res. 1987, 47, 2594-2598), myeloma (RPMI 8226; see e.g. Matsuoka Y, et al. Proc. Soc. Exp. Biol. Med. 1967, 125, 1246-1250), doxorubicin-resistant myeloma (8226/Dox40; see e.g. Dalton W S et al. Blood 1989, 15,747-752), lymphoma (U-937, see e.g. Sundstrom C, et al. Int. […]

CEM/VM1 = assay: FMCA, CEM/VM1 teniposide-resistant leukaemia; conditions: Homo sapiens, read-out: EC50 (μM) in various cancer cell lines: CEM/VM1
Source text: as §1, §2, §3, §4, §5

H69 = assay: FMCA, H69 lung cancer; conditions: Homo sapiens, NCI-H69, read-out: EC50 (μM) in various cancer cell lines: H69
Source text: as §1, §2, §3, §4, §5

A2780/Adr = assay: FMCA, A2780/Adr doxorubicin-resistant ovarian cancer; conditions: read-out: EC50 (μM) in various cancer cell lines: A2780/Adr
Source text: as §1, §2, §3, §4, §6

U-937 = assay: FMCA, U-937 lymphoma; conditions: Homo sapiens, read-out: EC50 (μM) in various cancer cell lines: U-937
Source text: as §1, §2, §3, §4, §5

PANC-1 = assay: FMCA, PANC-1 pancreatic cancer; conditions: Homo sapiens, read-out: EC50 (μM) in various cancer cell lines: PANC-1
Source text: as §1
as §2, with “versa. […]” for “versa.”
as §4, with “Each experiment was performed three times, except for PBMC and hRPTEpiC, which were performed twice.” left out, “curves. […]” for “curves.”

H69AR = assay: FMCA, H69AR doxorubicin-resistant lung cancer; conditions: Homo sapiens, read-out: EC50 (μM) in various cancer cell lines: H69 AR
Source text: as §1, §2, §3, §4, §5

MCF7 = assay: FMCA, MCF7 breast cancer; conditions: Homo sapiens, read-out: EC50 (μM) in various cancer cell lines: MCF7
Source text: as §1, §2, §3, §4, §5

U-937-vcr = assay: FMCA, U-937-vcr vincristin-resistant lymphoma; conditions: read-out: EC50 (μM) in various cancer cell lines: U-937-ver
Source text: as §1, §2, §3, §4, §5

8226/Dox40 = assay: FMCA, 8226/Dox40 doxorubicin-resistant myeloma; conditions: read-out: EC50 (μM) in various cancer cell lines: 8226/Dox40
Source text: as §1, §2, §3, §4, §5

BxPC-3 = assay: FMCA, BxPC-3 pancreatic cancer; conditions: Homo sapiens, read-out: EC50 (μM) in various cancer cell lines: BxPC-3
Source text: as §1
as §2, with “versa. […]” for “versa.”
as §4, with “Each experiment was performed three times, except for PBMC and hRPTEpiC, which were performed twice.” left out, “curves. […]” for “curves.”

HCT116 = assay: FMCA, HCT116 colon cancer; conditions: Homo sapiens, HCT-116, read-out: EC50 (μM) in various cancer cell lines: HCT116
Source text: as §1, §2, §3, §4, §5

A2780 = assay: FMCA, A2780 ovarian cancer; conditions: Homo sapiens, read-out: EC50 (μM) in various cancer cell lines: A2780
Source text: as §1, §2, §3, §4, §5

ACHN = assay: FMCA, ACHN renal cancer; conditions: Homo sapiens, read-out: EC50 (μM) in various cancer cell lines: ACHN
Source text: as §1, §2, §3, §4, §5

| EC50 (RPMI 8226) | EC50 (MIA PaCa-2) | EC50 (A2780/Cis) | EC50 (CEM/VM1) | EC50 (H69) | EC50 (A2780/Adr) | EC50 (U-937) | EC50 (PANC-1) | EC50 (H69AR) | EC50 (MCF7) | EC50 (U-937-vcr) | EC50 (8226/Dox40) | EC50 (BxPC-3) | EC50 (HCT116) | EC50 (A2780) | EC50 (ACHN) | Compound | EC50 [1] |
| --- | --- | --- | --- | --- | --- | --- | --- | --- | --- | --- | --- | --- | --- | --- | --- | --- | --- |
| 0.53 µM | < 0.1 µM | 0.61 µM | 0.17 µM | 7.84 µM | 1.9 µM | 0.27 µM | < 0.1 µM | 0.27 µM | 3.88 µM | 0.3 µM | 1.81 µM | < 0.1 µM | 0.63 µM | 0.47 µM | 1.9 µM | COc1ccc2[nH]cc(CCNc3nccc(NCc4ccc5[nH]ccc5c4)n3)c2c1 [Example 12, N^4-(1H-indol-5-ylmethyl)-N^2-[2-(5-methoxy-1H-indol-3-yl)ethyl]pyrimidine-2,4-diamine] | 760 nM |
| 12.8 µM | < 1 µM | 1.99 µM | 1.33 µM | 30.7 µM | 12.6 µM | 1.47 µM | < 1 µM |  | 28.5 µM | 1.81 µM | 46.3 µM | < 1 µM | 9.83 µM | 1.59 µM | 25.2 µM | c1cc(Nc2nccc(NCc3ccc4[nH]cnc4c3)n2)c2cc[nH]c2c1 [Example 19, N^4-(1H-benzo[d]imidazol-5-ylmethyl)-N^2-(1H-indol-4-yl)pyrimidine-2,4-diamine] | 1020 nM |
| 0.81 µM | < 0.1 µM | 0.32 µM | 0.23 µM | 11.6 µM | 1.71 µM | 0.29 µM | < 0.1 µM |  | 4.92 µM | 0.34 µM | 2.02 µM | < 0.1 µM | 6.2 µM | 0.45 µM | 3.08 µM | Cc1cc(NCc2ccc3[nH]ncc3c2)nc(Nc2cccc3[nH]ccc23)n1 [Example 37, N^4-(1H-indazol-5-ylmethyl)-N^2-(1H-indol-4-yl)-6-methylpyrimidine-2,4-diamine] | 420 nM |
